Results on three compounds are retold here after US20080031887A1, “Conjugates for inducing targeted immune responses and methods of making and using same” (priority 2006, published 2008).

Common to all, as to format: in vivo
For experiment [1], the system named is TUBO cells. Briefly: TUBO tumors implanted s.c. in Balb/c (non-tolerant) mice, treatment from day 10. Particulars: 20 μg/injection three times a week for three weeks; for antitumor effect (tumor rejection / tumor growth): i.t. injection, FIG. 1A; for antitumor effect: s.c. injection in the opposite flank, data not shown. The protocol:
(§1) FIG. 1 contains graphic representations illustrating that intratumoral injections of CpG-ODN induce rejection of tumors in Balb/c, BALB-neuT and A2×neu mice. Balb/c and BALB-neuT were implanted s.c. with 10^6 TUBO cells, and A2×neu mice were implanted s.c. with 10^6 N202.A2 cells on day zero. On day 10, animals started treatment with i.t. injections of TLR-ligands three times a week (20 μg/injection) for three weeks. […]
(§2) For these experiments, Balb/c (non-tolerant) and BALB-neuT (tolerant) mice implanted with TUBO cells and A2×neu mice implanted with N202.A2 cells were used (it is important to remember that TUBO cells are tumorigenic in Balb/c and BALB-neuT mice, while N202.A2 cells are tumorigenic only in A2×neu mice but not in A2×FVB mice). It is well established that the injection of these ligands results in the activation of DCs, monocytes/macrophages, and B cells, and as a consequence of the activation of these cells, NK cell and T cell responses are stimulated. […] Balb/c and BALB-neuT mice were implanted s.c. with 10^6 TUBO cells, and A2×neu mice were implanted s.c. with 10^6 N202.A2 cells on day zero. On day 10, animals started treatment with s.c. injections of anti-CD40 mAb, Poly I:C, LPS, flagellin, imiquimod, CpG-ODN and control-ODN (as a control) in the opposite flank from where the tumor was injected, three times a week (20 μg/injection) for three weeks. […] It was decided to test whether intratumoral (i.t.) injection of TLR ligands would result in the induction of an antitumor response. The effect of i.t. injections of anti-CD40 mAb, Poly I:C, LPS, flagellin, imiquimod, CpG-ODN and control-ODN (as a control) three times a week (20 μg/injection) for three weeks was tested. […]
Evaluation of anti-neu-CpG-ODN (cleavable bond) vs. anti-neu-CpG-ODN (non-cleavable bond). In determining the effectiveness of the conjugates of the present invention, the antitumor effects of anti-neu-CpG-ODN generated with a cleavable bond or non-cleavable bond were evaluated. Anti-neu-CpG-ODN generated with a non-cleavable bond was produced by the reaction pathway shown in FIG. 7A and contained a hydrazone linkage between the Anti-neu antibody and the CpG-ODN. Anti-neu-CpG-ODN generated with a cleavable bond was produced by the reaction pathway shown in FIG. 7B and contained a disulfide cleavable linkage. TUBO cells (1×10^6) were implanted s.c. on day zero on Balb/c. Starting on day 10, animals were injected intratumorally with 30 μg/injection of each of the anti-neu-CpG-ODN molecules three times a week for three weeks.

In experiment [2] the test system is TUBO cells. Description: TUBO tumors implanted s.c. in BALB-neuT (tolerant) mice, treatment from day 10. The following applies: 20 μg/injection three times a week for three weeks; for antitumor effect (tumor rejection / tumor growth): i.t. injection, FIG. 1B; for antitumor effect: s.c. injection in the opposite flank, data not shown. On the procedure:
as §1, §2

For experiment [3], the system named is N202.A2 cells. Briefly: N202.A2 tumors implanted s.c. in A2×neu mice, treatment with TLR ligands from day 10. The following applies: 20 μg/injection three times a week for three weeks; for antitumor effect (tumor rejection / tumor growth): i.t. injection, FIG. 1C; for antitumor effect: s.c. injection in the opposite flank, data not shown. On the procedure: FIG. 1 contains graphic representations illustrating that intratumoral injections of CpG-ODN induce rejection of tumors in Balb/c, BALB-neuT and A2×neu mice. Balb/c and BALB-neuT were implanted s.c. with 10^6 TUBO cells, and A2×neu mice were implanted s.c. with 10^6 N202.A2 cells on day zero. On day 10, animals started treatment with i.t. injections of TLR-ligands three times a week (20 μg/injection) for three weeks.
For these experiments, Balb/c (non-tolerant) and BALB-neuT (tolerant) mice implanted with TUBO cells and A2×neu mice implanted with N202.A2 cells were used (it is important to remember that TUBO cells are tumorigenic in Balb/c and BALB-neuT mice, while N202.A2 cells are tumorigenic only in A2×neu mice but not in A2×FVB mice). It is well established that the injection of these ligands results in the activation of DCs, monocytes/macrophages, and B cells, and as a consequence of the activation of these cells, NK cell and T cell responses are stimulated. […] Balb/c and BALB-neuT mice were implanted s.c. with 10^6 TUBO cells, and A2×neu mice were implanted s.c. with 10^6 N202.A2 cells on day zero. On day 10, animals started treatment with s.c. injections of anti-CD40 mAb, Poly I:C, LPS, flagellin, imiquimod, CpG-ODN and control-ODN (as a control) in the opposite flank from where the tumor was injected, three times a week (20 μg/injection) for three weeks. […] It was decided to test whether intratumoral (i.t.) injection of TLR ligands would result in the induction of an antitumor response. The effect of i.t. injections of anti-CD40 mAb, Poly I:C, LPS, flagellin, imiquimod, CpG-ODN and control-ODN (as a control) three times a week (20 μg/injection) for three weeks was tested.

Take flagellin: the “antitumor effect (tumor rejection / tumor growth)” value in experiment [1], in experiment [2] and in experiment [3] was “did not have any effect in controlling the tumor growth” in each case. Also, the antitumor effect entry in experiment [1], in experiment [2] and in experiment [3] was “no antitumor effect” in each case.

As for Poly I:C, the “antitumor effect (tumor rejection / tumor growth)” value in experiment [1] was “induced the rejection of tumors”. For the same compound, the antitumor effect result in experiment [1], in experiment [2] and in experiment [3] was “no antitumor effect” throughout.

For `CC(C)Cn1cnc2c(N)nc3ccccc3c21` [imiquimod], the “antitumor effect (tumor rejection / tumor growth)” value in experiment [1], in experiment [2] and in experiment [3] was “did not have any effect in controlling the tumor growth” throughout. Moreover, the antitumor effect result in experiment [1], in experiment [2] and in experiment [3] was “no antitumor effect” each time.
